{"source": "PubChem BioAssay AID1963986", "about": "(Molecular Pharmacology Branch, DTP, NCI, 2024);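 note: spheroids exposed to compound for 7 days before viability read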;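 for viability, T/C: 100% = DMSO vehicle-treated spheroids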", "tested_on": "171881-019-R-J1-PDC tumor spheroid viability", "assay": "Anticancer human tumor 171881-019-R-J1-PDC patient-derived invasive breast carcinoma cell line growth inhibition [PI3K]", "conditions": "spheroids with HUVEC and MSC; for IC50: curve of first compound; for viability, T/C: stronger effect = lower value", "how_it_was_run": "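Agents were dosed from a top concentration near clinical Cmax (otherwise 10 microM) in half-log decrements, alone or combined with PI3K inhibitors. The spheroids contain tumor cells plus endothelial (HUVEC) and MSC stroma; viability is measured.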", "key": {"[1]": {"conditions": "second compound 0.0316 µM, first compound 0.0316 µM"}, "[2]": {"conditions": "second compound 0.0316 µM, first compound 0.1 µM"}, "[3]": {"conditions": "second compound 0.1 µM, first compound 0.0316 µM"}, "[4]": {"conditions": "second compound 0.1 µM, first compound 0.1 µM"}, "[5]": {"conditions": "second compound 0.316 µM, first compound 0.0316 µM"}, "[6]": {"conditions": "second compound 0.316 µM, first compound 0.1 µM"}, "[7]": {"conditions": "second compound 1 µM, first compound 0.0316 µM"}, "[8]": {"conditions": "second compound 1 µM, first compound 0.1 µM"}, "[9]": {"conditions": "second compound 3.16 µM, first compound 0.0316 µM"}, "[10]": {"conditions": "second compound 3.16 µM, first compound 0.1 µM"}, "[11]": {"conditions": "second compound 10 µM, first compound 0.0316 µM"}, "[12]": {"conditions": "second compound 10 µM, first compound 0.1 µM"}}}
{"smiles": "CC(C)n1nc(-c2ccc3oc(N)nc3c2)c2c(N)ncnc21", "note": "+ CC(Nc1ncnc2nc[nH]c12)c1cc2cccc(Cl)c2c(=O)n1-c1ccccc1", "values": [{"measurement": "IC50", "setting": "second compound 0.0316 µM", "value": 12.4, "unit": "nM"}, {"measurement": "IC50", "setting": "second compound 0.1 µM", "value": 9.88, "unit": "nM"}, {"measurement": "IC50", "setting": "second compound 0.316 µM", "value": 10.3, "unit": "nM"}, {"measurement": "IC50", "setting": "second compound 1 µM", "value": 8.02, "unit": "nM"}, {"measurement": "IC50", "setting": "second compound 3.16 µM", "value": 4.14, "unit": "nM"}, {"measurement": "IC50", "setting": "second compound 10 µM", "value": 1.21, "unit": "nM"}, {"measurement": "viability, T/C", "setting": "second compound 0.0316 µM, first compound 0.000316 µM", "value": 89.7, "unit": "%"}, {"measurement": "viability, T/C", "setting": "second compound 0.0316 µM, first compound 0.001 µM", "value": 75.7, "unit": "%"}, {"measurement": "viability, T/C", "setting": "second compound 0.0316 µM, first compound 0.00316 µM", "value": 86.5, "unit": "%"}, {"measurement": "viability, T/C", "setting": "second compound 0.0316 µM, first compound 0.01 µM", "value": 53.3, "unit": "%"}, {"measurement": "viability, T/C", "setting": "[1]", "value": 22.7, "unit": "%"}, {"measurement": "viability, T/C", "setting": "[2]", "value": 3.39, "unit": "%"}, {"measurement": "viability, T/C", "setting": "second compound 0.1 µM, first compound 0.000316 µM", "value": 89.8, "unit": "%"}, {"measurement": "viability, T/C", "setting": "second compound 0.1 µM, first compound 0.001 µM", "value": 90.5, "unit": "%"}, {"measurement": "viability, T/C", "setting": "second compound 0.1 µM, first compound 0.00316 µM", "value": 71.8, "unit": "%"}, {"measurement": "viability, T/C", "setting": "second compound 0.1 µM, first compound 0.01 µM", "value": 51.1, "unit": "%"}, {"measurement": "viability, T/C", "setting": "[3]", "value": 21, "unit": "%"}, {"measurement": "viability, T/C", "setting": "[4]", "value": 4.54, "unit": "%"}, {"measurement": "viability, T/C", "setting": "second compound 0.316 µM, first compound 0.000316 µM", "value": 96.2, "unit": "%"}, {"measurement": "viability, T/C", "setting": "second compound 0.316 µM, first compound 0.001 µM", "value": 94.3, "unit": "%"}, {"measurement": "viability, T/C", "setting": "second compound 0.316 µM, first compound 0.00316 µM", "value": 78.2, "unit": "%"}, {"measurement": "viability, T/C", "setting": "second compound 0.316 µM, first compound 0.01 µM", "value": 50.7, "unit": "%"}, {"measurement": "viability, T/C", "setting": "[5]", "value": 20.4, "unit": "%"}, {"measurement": "viability, T/C", "setting": "[6]", "value": 3.31, "unit": "%"}, {"measurement": "viability, T/C", "setting": "second compound 1 µM, first compound 0.000316 µM", "value": 93.1, "unit": "%"}, {"measurement": "viability, T/C", "setting": "second compound 1 µM, first compound 0.001 µM", "value": 89.3, "unit": "%"}, {"measurement": "viability, T/C", "setting": "second compound 1 µM, first compound 0.00316 µM", "value": 67.4, "unit": "%"}, {"measurement": "viability, T/C", "setting": "second compound 1 µM, first compound 0.01 µM", "value": 47.3, "unit": "%"}, {"measurement": "viability, T/C", "setting": "[7]", "value": 18.5, "unit": "%"}, {"measurement": "viability, T/C", "setting": "[8]", "value": 3.26, "unit": "%"}, {"measurement": "viability, T/C", "setting": "second compound 3.16 µM, first compound 0.000316 µM", "value": 84.5, "unit": "%"}, {"measurement": "viability, T/C", "setting": "second compound 3.16 µM, first compound 0.001 µM", "value": 71.8, "unit": "%"}, {"measurement": "viability, T/C", "setting": "second compound 3.16 µM, first compound 0.00316 µM", "value": 53.8, "unit": "%"}, {"measurement": "viability, T/C", "setting": "second compound 3.16 µM, first compound 0.01 µM", "value": 37, "unit": "%"}, {"measurement": "viability, T/C", "setting": "[9]", "value": 13.3, "unit": "%"}, {"measurement": "viability, T/C", "setting": "[10]", "value": 3.36, "unit": "%"}, {"measurement": "viability, T/C", "setting": "second compound 10 µM, first compound 0.000316 µM", "value": 55.8, "unit": "%"}, {"measurement": "viability, T/C", "setting": "second compound 10 µM, first compound 0.001 µM", "value": 52.1, "unit": "%"}, {"measurement": "viability, T/C", "setting": "second compound 10 µM, first compound 0.00316 µM", "value": 40, "unit": "%"}, {"measurement": "viability, T/C", "setting": "second compound 10 µM, first compound 0.01 µM", "value": 22.2, "unit": "%"}, {"measurement": "viability, T/C", "setting": "[11]", "value": 7.46, "unit": "%"}, {"measurement": "viability, T/C", "setting": "[12]", "value": 3.13, "unit": "%"}]}
{"smiles": "CC1(C)CCC(CN2CCN(c3ccc(C(=O)NS(=O)(=O)c4ccc(NCC5CCOCC5)c([N+](=O)[O-])c4)c(Oc4cnc5[nH]ccc5c4)c3)CC2)=C(c2ccc(Cl)cc2)C1", "note": "+ CC(Nc1ncnc2nc[nH]c12)c1cc2cccc(Cl)c2c(=O)n1-c1ccccc1", "values": [{"measurement": "IC50", "setting": "second compound 0.0316 µM", "value": 4130, "unit": "nM"}, {"measurement": "IC50", "setting": "second compound 0.1 µM", "value": 3980, "unit": "nM"}, {"measurement": "IC50", "setting": "second compound 0.316 µM", "value": 3970, "unit": "nM"}, {"measurement": "IC50", "setting": "second compound 1 µM", "value": 4010, "unit": "nM"}, {"measurement": "IC50", "setting": "second compound 3.16 µM", "value": 2590, "unit": "nM"}, {"measurement": "IC50", "setting": "second compound 10 µM", "value": 1490, "unit": "nM"}, {"measurement": "viability, T/C", "setting": "[1]", "value": 88.6, "unit": "%"}, {"measurement": "viability, T/C", "setting": "[2]", "value": 80.2, "unit": "%"}, {"measurement": "viability, T/C", "setting": "second compound 0.0316 µM, first compound 0.316 µM", "value": 80.3, "unit": "%"}, {"measurement": "viability, T/C", "setting": "second compound 0.0316 µM, first compound 1 µM", "value": 76, "unit": "%"}, {"measurement": "viability, T/C", "setting": "second compound 0.0316 µM, first compound 3.16 µM", "value": 61.9, "unit": "%"}, {"measurement": "viability, T/C", "setting": "second compound 0.0316 µM, first compound 10 µM", "value": 14.3, "unit": "%"}, {"measurement": "viability, T/C", "setting": "[3]", "value": 89.7, "unit": "%"}, {"measurement": "viability, T/C", "setting": "[4]", "value": 89.9, "unit": "%"}, {"measurement": "viability, T/C", "setting": "second compound 0.1 µM, first compound 0.316 µM", "value": 74.5, "unit": "%"}, {"measurement": "viability, T/C", "setting": "second compound 0.1 µM, first compound 1 µM", "value": 72.6, "unit": "%"}, {"measurement": "viability, T/C", "setting": "second compound 0.1 µM, first compound 3.16 µM", "value": 64.1, "unit": "%"}, {"measurement": "viability, T/C", "setting": "second compound 0.1 µM, first compound 10 µM", "value": 11.7, "unit": "%"}, {"measurement": "viability, T/C", "setting": "[5]", "value": 90.4, "unit": "%"}, {"measurement": "viability, T/C", "setting": "[6]", "value": 88.2, "unit": "%"}, {"measurement": "viability, T/C", "setting": "second compound 0.316 µM, first compound 0.316 µM", "value": 81.9, "unit": "%"}, {"measurement": "viability, T/C", "setting": "second compound 0.316 µM, first compound 1 µM", "value": 97.3, "unit": "%"}, {"measurement": "viability, T/C", "setting": "second compound 0.316 µM, first compound 3.16 µM", "value": 59.2, "unit": "%"}, {"measurement": "viability, T/C", "setting": "second compound 0.316 µM, first compound 10 µM", "value": 12.4, "unit": "%"}, {"measurement": "viability, T/C", "setting": "[7]", "value": 92.1, "unit": "%"}, {"measurement": "viability, T/C", "setting": "[8]", "value": 88.3, "unit": "%"}, {"measurement": "viability, T/C", "setting": "second compound 1 µM, first compound 0.316 µM", "value": 81.4, "unit": "%"}, {"measurement": "viability, T/C", "setting": "second compound 1 µM, first compound 1 µM", "value": 84.8, "unit": "%"}, {"measurement": "viability, T/C", "setting": "second compound 1 µM, first compound 3.16 µM", "value": 59.9, "unit": "%"}, {"measurement": "viability, T/C", "setting": "second compound 1 µM, first compound 10 µM", "value": 10.8, "unit": "%"}, {"measurement": "viability, T/C", "setting": "[9]", "value": 84.5, "unit": "%"}, {"measurement": "viability, T/C", "setting": "[10]", "value": 87.9, "unit": "%"}, {"measurement": "viability, T/C", "setting": "second compound 3.16 µM, first compound 0.316 µM", "value": 85, "unit": "%"}, {"measurement": "viability, T/C", "setting": "second compound 3.16 µM, first compound 1 µM", "value": 75.7, "unit": "%"}, {"measurement": "viability, T/C", "setting": "second compound 3.16 µM, first compound 3.16 µM", "value": 44.6, "unit": "%"}, {"measurement": "viability, T/C", "setting": "second compound 3.16 µM, first compound 10 µM", "value": 11.4, "unit": "%"}, {"measurement": "viability, T/C", "setting": "[11]", "value": 64.5, "unit": "%"}, {"measurement": "viability, T/C", "setting": "[12]", "value": 55.9, "unit": "%"}, {"measurement": "viability, T/C", "setting": "second compound 10 µM, first compound 0.316 µM", "value": 57, "unit": "%"}, {"measurement": "viability, T/C", "setting": "second compound 10 µM, first compound 1 µM", "value": 57, "unit": "%"}, {"measurement": "viability, T/C", "setting": "second compound 10 µM, first compound 3.16 µM", "value": 37.7, "unit": "%"}, {"measurement": "viability, T/C", "setting": "second compound 10 µM, first compound 10 µM", "value": 9.06, "unit": "%"}]}
